We go through 8 compounds from EP3290412A1, “HIV-1 NUCLEOCAPSID INHIBITORS” (Università degli Studi di Siena, priority 2016, dated 2018).

Common to all, as to assay type: cell-based
In data set [1] the test system is HeLa cells. Put plainly: HeLa Proliferation assay (CellTiter Glo). Particulars: 72 hours. In short, it runs like this: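 Viability measured with CellTiter Glo after 72 h compound exposure (37 °C, 5% CO2, humidified) of HeLa cells seeded at 2000 per well in 10% FBS DMEM without phenol red and allowed 4 h recovery.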
(In general: In ATP-based viability assays light output follows the ATP content of the culture.)

The test system of data set [2] is Peripheral blood mononuclear cells (PBMC). As to conditions: human, 7 days. An outline of the steps:
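Cytotoxicity measured after 7 days of compound exposure by MTS conversion (OD 490 nm, 4 h). The cells were PHA-activated (5 µg/mL, 2 days) donor PBMC, cultured with 20 IU/mL IL-2 at 1x10^5 cells/well. TD50 is the dose killing 50% versus untreated control, read from the dose-mortality curve.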

Data set [3] deals with HIV-1 reference strain NL4-3. Put plainly: MonoCycle assay (TZM-bl cells). In short, it runs like this: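 TZM-bl cells (20,000/well) were infected with NL4-3 in the presence of five-fold serial inhibitor dilutions. After 48 h, cells were lysed and luciferase luminescence (RLU) was counted. IC50 was derived from the RLU data.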
Data set [4] has as its system HIV-1 reference strain NL4-3. Put plainly: BiCycle assay (MT-2 then TZM-bl cells). An outline of the steps: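 MT-2 cells were infected with NL4-3 in the presence of five-fold compound dilutions. After 72 h, the supernatant was passed to TZM-bl cells. Two days later, luciferase luminescence was read and IC50 calculated, giving a readout that spans the whole replication cycle.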

Where [5] appears, read: Human immunodeficiency virus 1, NL43, TZM-bl, 48 h, read-out: Mono Cycle IC50 nM.
Setting [6] is: Human immunodeficiency virus 1, NL43, TZM-bl, read-out: BiCycle IC50 nM.
[7] abbreviates: Human immunodeficiency virus 1, NL43, TZM-bl cells, NL4-3, 48 hours, read-out: Mono Cycle IC50.
The mark [8] stands for this setting: Human immunodeficiency virus 1, NL43, MT-2 cells 72 hours then TZM-bl cells two days, NL4-3, read-out: BiCycle IC50.

As usually defined, the IC50 is the midpoint of a concentration-inhibition curve. On to `C[C@H](NC(=O)c1nc(-c2ccc(C(=O)OCc3ccccc3)cn2)nc(O)c1O)C1CCCCC1` [Compound 70, benzyl (S)-6-(4-((1-cyclohexylethyl)carbamoyl)-5,6-dihydroxypyrimidin-2-yl)nicotinate], for which the “Proliferation assay HELA TD50” value in data set [1] was found to be 4.1006 µM. In data set [2], the “Proliferation assay PBMC TD50” value is listed as 500 nM. In addition, the results for the IC50 in data set [3] (setting [5]) and in data set [4] (setting [6]) were more than 50000 nM and 190 nM, respectively.
With `C[C@@H](NC(=O)c1nc(-c2cc(C(=O)NCc3ccccc3)ccn2)nc(O)c1O)C1CCCCC1` [Compound 74, (R)-2-(4-(benzylcarbamoyl)pyridin-2-yl)-N-(1-cyclohexylethyl)-5,6-dihydroxypyrimidine-4-carboxamide], the “Proliferation assay HELA TD50” value in data set [1] stood at 3.6728 µM. In addition, the “Proliferation assay PBMC TD50” value in data set [2] is reported as 1680 nM. The half-maximal inhibitory concentration (IC50) was more than 50000 nM in data set [3] (setting [7]) and 299 nM in data set [4] (setting [8]).
In the case of `C[C@H](NC(=O)c1nc(-c2ccc3ccccc3n2)nc(O)c1O)C1CCCCC1` [Compound 75, (S)-N-(1-cyclohexylethyl)-5,6-dihydroxy-2-(quinolin-2-yl)pyrimidine-4-carboxamide], the “Proliferation assay HELA TD50” value in data set [1] stood at 7.5355 µM. For the same compound, in data set [2], the “Proliferation assay PBMC TD50” value came out at 6900 nM. Moreover, the IC50 in data set [3] (setting [5]) is more than 50000 nM; in data set [4] (setting [6]), 752 nM.
For the compound `Cc1cc(-c2nc(O)c(O)c(C(=O)N[C@H](C)C3CCCCC3)n2)nc2ccccc12` [Compound 73, (R)-N-(1-cyclohexylethyl)-5,6-dihydroxy-2-(4-methylquinolin-2-yl)pyrimidine-4-carboxamide], the “Proliferation assay HELA TD50” value in data set [1] was 5.3719 µM. Besides, the “Proliferation assay PBMC TD50” value in data set [2] worked out at 5790 nM. For the same compound, the IC50 in data set [3] (setting [7]) was more than 50000 nM; in data set [4] (setting [8]) it was 358 nM.
Regarding `C[C@H](NC(=O)c1nc(-c2cc3ccccc3cn2)nc(O)c1O)C1CCCCC1` [Compound 72, (S)-N-(1-cyclohexylethyl)-5,6-dihydroxy-2-(isoquinolin-3-yl)pyrimidine-4-carboxamide], the “Proliferation assay HELA TD50” value in data set [1] was found to be 3.4875 µM. In addition, the “Proliferation assay PBMC TD50” value in data set [2] was 2270 nM. In addition, the IC50 is 13400 nM in data set [3] (setting [5]) and 382 nM in data set [4] (setting [6]).
Consider `Cc1ccnc(-c2nc(O)c(O)c(C(=O)NC3(C4CCCCC4)CC3)n2)c1` [Compound 84, N-(1-cyclohexylcyclopropyl)-5,6-dihydroxy-2-(4-methylpyridin-2-yl)pyrimidine-4-carboxamide], for which the “Proliferation assay HELA TD50” value in data set [1] was found to be 1.9245 µM. Moreover, in data set [2], the “Proliferation assay PBMC TD50” value worked out at 3470 nM. For the same compound, the IC50 was determined as 21200 nM in data set [3] (setting [7]) and 1880 nM in data set [4] (setting [8]).
Regarding `C[C@H](NC(=O)c1nc(-c2cc(C(=O)OCc3ccccc3)ccn2)nc(O)c1O)C1CCCCC1` [Compound 71, benzyl (S)-2-(4-((1-cyclohexylethyl)carbamoyl)-5,6-dihydroxypyrimidin-2-yl)isonicotinate], in data set [1], the “Proliferation assay HELA TD50” value was found to be 12.825 µM. Moreover, the “Proliferation assay PBMC TD50” value in data set [2] is 1420 nM. Moreover, the IC50 is more than 50000 nM in data set [3] (setting [5]) and 559 nM in data set [4] (setting [6]).
For `CC(NC(=O)c1nc(-c2nccc3ccccc23)nc(O)c1O)C1CCC(F)(F)CC1` (centres unmarked) [Compound 90, N-(1-(4,4-difluorocyclohexyl)ethyl)-5,6-dihydroxy-2-(isoquinolin-1-yl)pyrimidine-4-carboxamide], in data set [1], the “Proliferation assay HELA TD50” value stood at 6.4522 µM. Also, the “Proliferation assay PBMC TD50” value in data set [2] is 4270 nM. The IC50 in data set [3] (setting [7]) was more than 50000 nM; in data set [4] (setting [8]), 1790 nM.
